This assay deals with A549 cells. Kind of assay: Cellular proliferation/cytotoxicity assay (Alamar Blue), A549. It is filed as cell-based. Conditions: Homo sapiens, 72 h, Alamar Blue (Resazurin), read-out: Anti-proliterative/Cytotoxic activity (A549 cells). As for the experimental part:
Cellular Proliferation/Cytotoxicity Assay:
The anti-proliferative activity of the compounds as described herein, is evaluated using the OvCAR3, HCT116 and A549 cell lines and the Alamar Blue (Resazurin) cell viability assay (O'Brien et al. Eur J Biochem 267, 5421-5426, 2000). Resazurin is reduced to the fluorescent resorufin by cellular dehydrogenase activity, correlating with viable, proliferating cells. Test compounds are dissolved as 10 mM solutions in DMSO and subsequently diluted. Cells like HCT116 or A549 cells were seeded into 96 well flat bottom plates at a density of 10000 cells/well (OvCAR3 cells), 1000 cells/well (HCT116 cells) or 2000 cells/well (A549 cells) in a volume of 200 μl/well. 24 hours after seeding, 1 μl each of the compound dilutions are added into each well of the 96 well plates. Each compound dilution is tested as at least as duplicates. Wells containing untreated control cells were filled with 200 μl DMEM (Dulbecco's Modified Eagle Medium) containing 0.5 vol % v:v DMSO. The cells are then incubated with the substances for 72 h at 37° C. in a humidified atmosphere containing 5 vol % CO2. To determine the viability of the cells, 20 μl of a Resazurin solution (90 mg/l) are added. After 4 h incubation at 37° C., the fluorescence is measured by extinction at λ=544 nm and an emission of λ=590 nm (Wallac Victor2; Perkin Elmer, USA). For the calculation of the cell viability, the emission value from untreated cells is set as 100% viability and the fluorescence intensity of treated cells are set in relation to the values of untreated cells. Viabilities are expressed as % values. The corresponding IC50 values of the compounds for cytotoxic activity are determined from the concentration-effect curves by means of non-linear regression. The analysis of the data is performed using a biostatistical program (GraphPad Prism, USA).
Representative IC50 values for anti-proliferative/cytotoxic potency determined in the aforementioned assay follow from the following table, in which the numbers of the compound correspond to the numbers of the examples.
(The colour change of resazurin is a common sign of viable cells or microbes.)

The source of these data is patent publication US8614218B2, “Fused bicyclic pyrimidines” (Bayer Intellectual Property GmbH, priority 2007, dated 2013).

As to `c1ccc(-c2cn3ccnc3nc2-c2ccc(CN3CCC(c4n[nH]c(-c5ccccn5)n4)CC3)cc2)cc1` [Example 85, 6-phenyl-7-{4-[4-(5-pyridin-2-yl-1H-[1,2,4]triazol-3-yl)-piperidin-1-ylmethyl]-phenyl}-imidazo[1,2-a]pyrimidine], the IC50 was above 10 µM.

Consider `Cc1nc2nc(-c3ccc(CN4CCC(c5n[nH]c(-c6ccccn6)n5)CC4)cc3)c(-c3ccsc3)cn2n1` [Example 54, 2-Methyl-5-(4-{[4-(5-pyridin-2-yl-1H-1,2,4-triazol-3-yl)piperidin-1-yl]methyl}phenyl)-6-(3-thienyl)[1,2,4]triazolo[1,5-a]pyrimidine], for which the IC50 was below 10 µM.

Take `c1ccc(-c2nc(C3CCN(Cc4ccc(-c5nc6nccn6cc5-c5ccsc5)cc4)CC3)n[nH]2)nc1` [Example 51, 7-(4-{[4-(5-Pyridin-2-yl-1H-1,2,4-triazol-3-yl)piperidin-1-yl]methyl}phenyl)-6-(3-thienyl)imidazo[1,2-a]pyrimidine]: the IC50 is below 10 µM.

Regarding `O=C(O)c1cc2nc(-c3ccc(CN4CCC(c5n[nH]c(-c6ccccn6)n5)CC4)cc3)c(-c3ccccc3)cn2n1` [Example 79, 6-Phenyl-5-(4-{[4-(5-pyridin-2-yl-1H-1,2,4-triazol-3-yl)piperidin-1-yl]methyl}phenyl)pyrazolo[1,5-a]pyrimidine-2-carboxylic acid], the IC50 is below 10 µM.

On to `COc1nc2nc(-c3ccc(CN4CCC(c5n[nH]c(-c6ccccn6)n5)CC4)cc3)c(-c3ccccc3)cn2n1` [Example 66, 2-Methoxy-6-phenyl-5-(4-{[4-(5-pyridin-2-yl-1H-1,2,4-triazol-3-yl)piperidin-1-yl]methyl}phenyl)[1,2,4]triazolo[1,5-a]pyrimidine], for which the IC50 was below 10 µM.

Consider `Cc1nc2nc(-c3ccc(CN4CCC(c5cc(-c6ccccn6)n[nH]5)CC4)cc3)c(-c3ccccc3)cn2n1` [Example 46, 2-Methyl-6-phenyl-5-(4-{[4-(3-pyridin-2-yl-1H-pyrazol-5-yl)piperidin-1-yl]methyl}phenyl)[1,2,4]triazolo[1,5-a]pyrimidine], for which the IC50 was above 10 µM.

With `Cc1nc2nc(-c3ccc(CN4CCC(c5n[nH]c(-c6ccncc6)n5)CC4)cc3)c(-c3ccccc3)cn2n1` [Example 47, 2-Methyl-6-phenyl-5-(4-{[4-(5-pyridin-4-yl-1H-1,2,4-triazol-3-yl)piperidin-1-yl]methyl}phenyl)[1,2,4]triazolo[1,5-a]pyrimidine], the IC50 is below 10 µM.

In the case of `Cc1nc2nc(-c3ccc(CN4CCC(c5n[nH]c(-c6ccccn6)n5)CC4)cc3)c(-c3ccccc3)c(N(C)C)n2n1` [Example 64, N,N,2-Trimethyl-6-phenyl-5-(4-{[4-(5-pyridin-2-yl-1H-1,2,4-triazol-3-yl)piperidin-1-yl]methyl}phenyl)[1,2,4]triazolo[1,5-a]pyrimidin-7-amine], the IC50 was below 10 µM.

For `FC(F)(F)c1nc2nc(-c3ccc(CN4CCC(c5n[nH]c(-c6ccccn6)n5)CC4)cc3)c(-c3ccccc3)cn2n1` [Example 63, 6-Phenyl-5-(4-{[4-(5-pyridin-2-yl-1H-1,2,4-triazol-3-yl)piperidin-1-yl]methyl}phenyl)-2-(trifluoromethyl)[1,2,4]triazolo[1,5-a]pyrimidine], the IC50 was above 10 µM.

`Cc1cccc(-c2n[nH]c(C3CCN(Cc4ccc(-c5nc6ccnn6cc5-c5ccccc5)cc4)CC3)n2)n1` [Example 75, 5-[4-({4-[3-(6-Methylpyridin-2-yl)-1H-1,2,4-triazol-5-yl]piperidin-1-yl}methyl)phenyl]-6-phenylpyrazolo[1,5-a]pyrimidine]: the IC50 is below 10 µM.

In the case of `c1ccc(-c2cn3nccc3nc2-c2ccc(CN3CCC(c4nc(-c5ncccn5)n[nH]4)CC3)cc2)cc1` [Example 69, 6-Phenyl-5-(4-{[4-(3-pyrimidin-2-yl-1H-1,2,4-triazol-5-yl)piperidin-1-yl]methyl}phenyl)pyrazolo[1,5-a]pyrimidine], the IC50 was above 10 µM.
